Test results from patent US12344610B2, “APOL1 inhibitors and methods of use” (Maze Therapeutics, Inc., priority 2022, dated 2025).
Like-named read-outs stand apart in the source and are kept apart here.

Assays:
[1] = test system: HEK293 clonal cell line overexpressing APOL1 G1; assay: APOL1 G1 HEK293 cell rescue assay (Example B3); format: cell-based; conditions: geometric mean of at least 2 runs, † = single run, ¥ = concentration at 50% rescue estimated (no sigmoidal curve)
Summary of the method: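 HEK293 clonal line overexpressing APOL1 G1; EC50 is half-maximal reversal of APOL1-induced cell death. Values are the geometric mean of ≥2 runs on separate days, each run the average of duplicate wells. Where no sigmoidal curve could be fitted, the concentration giving 50% rescue was estimated.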

[2] = test system: Trypanosoma brucei Lister 427 VSG221 with APOL1 G0 recombinant protein; assay: APOL1 G0 trypanosome cell rescue assay (Example B5); format: cell-based; conditions: geometric mean of at least 2 assay runs, † = single assay run
Summary of the method: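 Recombinant mature APOL1 (residues 28-398, His-tag removed, E. coli-expressed, refolded from inclusion bodies, DDM buffer) at […] added with 250 trypanosomes/well in modified HMI-9 media. Duplicate 11-point 2-fold compound series, 0.4% DMSO; 20 h at 37° C, 5% CO2, then CellTiter-Glo luminescence for viability.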

[3] = Homo sapiens, HEK293, HEK293 clonal line overexpressing APOL1 G1
[4] = Trypanosoma brucei, 20 h, read-out: APOL1 G0 Trypanosome Rescue EC50, Trypanosoma brucei Lister 427 VSG221 with APOL1 G0 recombinant protein, 20 hours, CellTiter-Glo

Row | Structure (SMILES) | EC50 [1, 3] [nM] | EC50 [2, 4] [nM] | EC50 ([1]; HEK293 clonal line overexpressing APOL1 G1) [nM] | EC50 ([2]; read-out: APOL1 G0 Trypanosome Rescue EC50, Trypanosoma brucei Lister 427 VSG221 with APOL1 G0 recombinant protein, 20 hours, CellTiter-Glo) [nM]
1 | Cc1nc2cc(OCCN3CCC4(CC3)C(=O)Nc3ccc(Cl)cc34)cc(C(F)(F)F)c2n1[C@H]1C[C@@](C)(O)C1 [Compound 442, 5-chloro-1′-[2-({2-methyl-1-[(cis)-3-hydroxy-3-methylcyclobutyl]-7-(trifluoromethyl)-1H-1,3-benzodiazol-5-yl}oxy)ethyl]-1,2-dihydrospiro[indole-3,4′-piperidin]-2-one] | 15.6 |  |  | 
2 | C[C@]1(O)C[C@@H](n2c(=O)ccc3cc(OCCN4CCC5(CC4)C(=O)Nc4ccc(Cl)cc45)cnc32)C1 [Compound 323, 5-chloro-1′-[2-({7-oxo-8-[(cis)-3-hydroxy-3-methylcyclobutyl]-7,8-dihydro-1,8-naphthyridin-3-yl}oxy)ethyl]-1,2-dihydrospiro[indole-3,4′-piperidin]-2-one] | 36.4 | 32 |  | 
3 | CN1C(=O)CCc2cc(OCCN3CCC4(CC3)C(=O)Nc3ccc(C#N)cc34)cnc21 [Compound 79, 1′-{2-[(8-methyl-7-oxo-5,6,7,8-tetrahydro-1,8-naphthyridin-3-yl)oxy]ethyl}-2-oxo-1,2-dihydrospiro[indole-3,4′-piperidine]-5-carbonitrile] | 533 | 846 |  | 
4 | O=C1Nc2ccc(Cl)cc2C12CCN(CCOc1cnc(N3CC4(CC(O)C4)C3)nc1)CC2 [Compound 396, 5-chloro-1′-{2-[(2-{6-hydroxy-2-azaspiro[3.3]heptan-2-yl}pyrimidin-5-yl)oxy]ethyl}-1,2-dihydrospiro[indole-3,4′-piperidin]-2-one] | 85 |  |  | 
5 | CC(=O)N1Cc2ccc(OCCN3CCC4(CC3)C(=O)Nc3ccc(Cl)cc34)cc2C1 [Compound 57, 1′-{2-[(2-acetyl-2,3-dihydro-1H-isoindol-5-yl)oxy]ethyl}-5-chloro-1,2-dihydrospiro[indole-3,4′-piperidin]-2-one] | 390 | 673 |  | 
6 | CS(=O)(=O)N1CCCc2cc(OCCN3CCC4(CC3)C(=O)Nc3ccc(Cl)cc34)ccc21 [Compound 53, 5-chloro-1′-{2-[(1-methanesulfonyl-1,2,3,4-tetrahydroquinolin-6-yl)oxy]ethyl}-1,2-dihydrospiro[indole-3,4′-piperidin]-2-one] | 219 | 156 |  | 
7 | C[C@]1(O)C[C@@H](n2c(=O)ccc3cc(OCCN4CCC5(CC4)C(=O)Nc4ccc(C(F)F)cc45)cnc32)C1 [Compound 324, 5-(difluoromethyl)-1′-[2-({7-oxo-8-[(cis)-3-hydroxy-3-methylcyclobutyl]-7,8-dihydro-1,8-naphthyridin-3-yl}oxy)ethyl]-1,2-dihydrospiro[indole-3,4′-piperidin]-2-one] | 40.8 | 28.9 |  | 
8 | Cc1nc2cc(OCCN3CCC4(CC3)C(=O)Nc3ccc(C#N)cc34)cc(C(F)(F)F)c2n1[C@H]1C[C@@](C)(O)C1 [Compound 443, 1′-[2-({2-methyl-1-[(cis)-3-hydroxy-3-methylcyclobutyl]-7-(trifluoromethyl)-1H-1,3-benzodiazol-5-yl}oxy)ethyl]-2-oxo-1,2-dihydrospiro[indole-3,4′-piperidine]-5-carbonitrile] | 30.8 |  |  | 
9 | C[C@]1(O)C[C@@H](n2ncc3cc(OCCN4CCC5(CC4)C(=O)Nc4ccc(Cl)cc45)cnc32)C1 (single isomer, unassigned) [Compound 357, 5-chloro-1′-[2-({1-[(cis)-3-hydroxy-3-methylcyclobutyl]-1H-pyrazolo[3,4-b]pyridin-5-yl}oxy)ethyl]-1,2-dihydrospiro[indole-3,4′-piperidin]-2-one] | 35.3 | 61.2 |  | 
10 | CC1(O)CC2(CN(c3ncc(OCCN4CCC5(CC4)C(=O)Nc4ccc(Cl)cc45)cn3)C2)C1 [Compound 459, 5-chloro-1′-{2-[(2-{6-hydroxy-6-methyl-2-azaspiro[3.3]heptan-2-yl}pyrimidin-5-yl)oxy]ethyl}-1,2-dihydrospiro[indole-3,4′-piperidin]-2-one] | 95.5 | 101 |  | 
11 | CS(=O)(=O)C1(c2ncc(OCCN3CCC4(CC3)C(=O)Nc3ccc(Cl)cc34)cn2)CC1 [Compound 4, 5-chloro-1′-(2-{[2-(1-methanesulfonylcyclopropyl)pyrimidin-5-yl]oxy}ethyl)-1,2-dihydrospiro[indole-3,4′-piperidin]-2-one] | 177 | 116 |  | 
12 | NC(=O)c1ccc(OCCN2CCC3(CC2)C(=O)Nc2ccc(Cl)cc23)cc1F [Compound 46, 4-(2-{5-chloro-2-oxo-1,2-dihydrospiro[indole-3,4′-piperidin]-1′-yl}ethoxy)-2-fluorobenzamide] | 253 | 156 |  | 
13 | CS(=O)(=O)c1ccc(OCCN2CCC3(CC2)C(=O)Nc2ccc(Cl)cc23)cc1F [Compound 63, 5-chloro-1′-[2-(3-fluoro-4-methanesulfonylphenoxy)ethyl]-1,2-dihydrospiro[indole-3,4′-piperidin]-2-one] | 160 | 118 |  | 
14 | CC(C)(O)c1ncc(OCCN2CCC3(CC2)C(=O)Nc2ccc(C#N)cc23)cc1C(F)(F)F [Compound 411, 1′-(2-{[6-(2-hydroxypropan-2-yl)-5-(trifluoromethyl)pyridin-3-yl]oxy}ethyl)-2-oxo-1,2-dihydrospiro[indole-3,4′-piperidine]-5-carbonitrile] | 55.6 |  |  | 
15 | CC1(O)CC(CN2C(=O)CCc3cc(OCCN4CCC5(CC4)C(=O)Nc4ccc(Cl)cc45)cnc32)C1 (single isomer, unassigned) [Compound 322, 5-chloro-1′-{2-[(7-oxo-8-{[(trans) or (cis)-3-hydroxy-3-methylcyclobutyl]methyl}-5,6,7,8-tetrahydro-1,8-naphthyridin-3-yl)oxy]ethyl}-1,2-dihydrospiro[indole-3,4′-piperidin]-2-one] |  |  | 38.6 | 29.3
16 | C[C@]1(O)C[C@@H](n2cc3cc(OCCN4CCC5(CC4)C(=O)Nc4ccc(C#N)cc45)cc(C(F)(F)F)c3n2)C1 [Compound 428, 2-oxo-1′-[2-({2-[(cis)-3-hydroxy-3-methylcyclobutyl]-7-(trifluoromethyl)-2H-indazol-5-yl}oxy)ethyl]-1,2-dihydrospiro[indole-3,4′-piperidine]-5-carbonitrile] | 89.6 | 63.3 |  | 
17 | CS(=O)(=O)c1ccc(OCCN2CCC3(CC2)C(=O)Nc2ccc(Cl)cc23)cn1 [Compound 64, 5-chloro-1′-{2-[(6-methanesulfonylpyridin-3-yl)oxy]ethyl}-1,2-dihydrospiro[indole-3,4′-piperidin]-2-one] | 516 | 503 |  | 
18 | C[C@]1(O)C[C@@H](n2c(=O)oc3cc(OCCN4CCC5(CC4)C(=O)Nc4ccc(Cl)cc45)cnc32)C1 [Compound 394, 5-chloro-1′-[2-({2-oxo-3-[(cis)-3-hydroxy-3-methylcyclobutyl]-2H,3H-[1,3]oxazolo[4,5-b]pyridin-6-yl}oxy)ethyl]-1,2-dihydrospiro[indole-3,4′-piperidin]-2-one] | 77.7 |  |  | 
19 | CC(CO)(c1ncc(OCCN2CCC3(CC2)C(=O)Nc2ccc(Cl)cc23)cc1C(F)(F)F)S(C)(=O)=O (stereo not shown) [Compound 401, 5-chloro-1′-(2-{[6-(1-hydroxy-2-methanesulfonylpropan-2-yl)-5-(trifluoromethyl)pyridin-3-yl]oxy}ethyl)-1,2-dihydrospiro[indole-3,4′-piperidin]-2-one] | 68.2 |  |  | 
20 | C[C@]1(O)C[C@@H](n2nnc3cc(OCCN4CCC5(CC4)C(=O)Nc4ccc(Cl)cc45)cc(C(F)(F)F)c32)C1 [Compound 434, 5-chloro-1′-[2-({1-[(cis)-3-hydroxy-3-methylcyclobutyl]-7-(trifluoromethyl)-1H-1,2,3-benzotriazol-5-yl}oxy)ethyl]-1,2-dihydrospiro[indole-3,4′-piperidin]-2-one] | 14.8 |  |  | 
21 | C[C@]1(O)C[C@@H](n2cnc3cc(OCCN4CCC5(CC4)C(=O)Nc4ccc(C#N)cc45)cc(C(F)(F)F)c32)C1 [Compound 433, 1′-(2-((1-((cis)-3-hydroxy-3-methylcyclobutyl)-7-(trifluoromethyl)-1H-benzo[d]imidazol-5-yl)oxy)ethyl)-2-oxospiro[indoline-3,4′-piperidine]-5-carbonitrile] | 29.6 |  |  | 
22 | C[C@]1(O)C[C@@H](n2cnc3cc(OCCN4CCC5(CC4)C(=O)Nc4ccc(C(F)F)cc45)cc(C(F)(F)F)c32)C1 [Compound 450, 5-(difluoromethyl)-1′-[2-({1-[(cis)-3-hydroxy-3-methylcyclobutyl]-7-(trifluoromethyl)-1H-1,3-benzodiazol-5-yl}oxy)ethyl]-1,2-dihydrospiro[indole-3,4′-piperidin]-2-one] | 14.9 |  |  | 
23 | C[C@]1(O)C[C@@H](n2ccc3cc(OCCN4CCC5(CC4)C(=O)Nc4ccc(C(F)F)cc45)cnc32)C1 [Compound 350, 5-(difluoromethyl)-1′-[2-({1-[(cis)-3-hydroxy-3-methylcyclobutyl]-1H-pyrrolo[2,3-b]pyridin-5-yl}oxy)ethyl]-1,2-dihydrospiro[indole-3,4′-piperidin]-2-one] | 43.9 |  |  | 
24 | CC(C)(CO)c1ncc(OCCN2CCC3(CC2)C(=O)Nc2ccc(Cl)cc23)cn1 [Compound 334, 5-chloro-1′-(2-{[2-(1-hydroxy-2-methylpropan-2-yl)pyrimidin-5-yl]oxy}ethyl)-1,2-dihydrospiro[indole-3,4′-piperidin]-2-one] | 269 |  |  | 
